The values that follow are results of earlier work, collected in patent publication US9821060B2, “Heat-sensitive nanoparticle system” (FONDAZIONE ISTITUTO ITALIANO DI TECNOLOGIA, priority 2013, dated 2017).

The conditions of this data set: in water.

Structures are written as SMILES.

As to `CC(C)(N=NC(C)(C)C(=O)NCCC(=O)O)C(=O)NCCC(=O)O.O` [VA057, 2,2′Azobis-[N-(2-carboxyethyl)-2-methylpropionamide]hydrate], the “half-life temperature at 10 hours” value is 57 °C.
